Data on 21 compounds can be found in patent publication US20230091225A1, “Bifunctional chimeric heterocyclic compounds for targeted degradation of androgen receptors and use thereof” (HINOVA PHARMACEUTICALS INC., priority 2019, published 2023).

In this assay the target is T1, androgen receptor (AR) (Homo sapiens, UniProt P10275).
T1 sequence (P10275 1-920): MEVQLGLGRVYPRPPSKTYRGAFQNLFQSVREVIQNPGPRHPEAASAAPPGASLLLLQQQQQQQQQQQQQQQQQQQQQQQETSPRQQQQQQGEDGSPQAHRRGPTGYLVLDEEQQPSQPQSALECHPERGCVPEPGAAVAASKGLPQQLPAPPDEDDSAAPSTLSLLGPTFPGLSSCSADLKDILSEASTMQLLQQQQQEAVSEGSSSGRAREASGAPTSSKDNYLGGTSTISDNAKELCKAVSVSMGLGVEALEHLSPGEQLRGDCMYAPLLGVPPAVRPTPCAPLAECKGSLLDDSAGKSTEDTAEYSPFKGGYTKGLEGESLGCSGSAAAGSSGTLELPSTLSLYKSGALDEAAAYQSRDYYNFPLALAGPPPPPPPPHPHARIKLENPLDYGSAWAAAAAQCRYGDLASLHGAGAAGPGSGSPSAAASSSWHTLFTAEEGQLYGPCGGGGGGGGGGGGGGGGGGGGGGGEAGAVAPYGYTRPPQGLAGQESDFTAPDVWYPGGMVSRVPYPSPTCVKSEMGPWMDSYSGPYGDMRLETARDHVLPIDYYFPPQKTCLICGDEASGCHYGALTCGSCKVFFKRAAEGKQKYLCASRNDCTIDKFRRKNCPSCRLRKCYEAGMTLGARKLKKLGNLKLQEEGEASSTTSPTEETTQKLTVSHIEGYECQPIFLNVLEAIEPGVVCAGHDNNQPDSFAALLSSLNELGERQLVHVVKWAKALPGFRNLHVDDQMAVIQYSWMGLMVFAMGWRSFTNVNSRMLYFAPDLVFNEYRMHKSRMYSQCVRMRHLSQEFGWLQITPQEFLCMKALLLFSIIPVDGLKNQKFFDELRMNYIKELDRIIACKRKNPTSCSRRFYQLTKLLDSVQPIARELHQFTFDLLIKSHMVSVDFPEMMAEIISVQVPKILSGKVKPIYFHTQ
The assay can be described thus: Degradation of androgen receptor (AR) protein in VCaP cells by ELISA. Format: cell-based. The conditions noted are these: AR degradation, VCaP cells, 16 h, ELISA; for DC50: read-out: DC50; for Dmax: VCaP, read-out: Dmax (%).

Read-outs that look alike come from different tables or passages of the source. Some results are limits rather than exact numbers.

Usually DC50 stands for the concentration giving 50% degradation. Consider `CC1(C)[C@H](Oc2ccc(C#N)c(Cl)c2)C(C)(C)[C@H]1N1Cc2nc(C#CC3CCC(N4CCC5(CCN(c6cc7c(cc6F)C(=O)N(C6CCC(=O)NC6=O)C7=O)C5)C4)CC3)ccc2C1=O` (stereo partly shown) [Compound 367, 2-Chloro-4-((1r,3r)-3-(2-((4-(7-(2-(2,6-dioxopiperidin-3-yl)-6-fluoro-1,3-dioxoisoindolin-5-yl)-2,7-diazaspiro[4.4]nonan-2-yl)cyclohexyl)ethynyl)-5-oxo-5,7-dihydro-6H-pyrrolo[3,4-b]pyridin-6-yl)-2,2,4,4-tetramethylcyclobutoxy) benzonitrile], for which, under “Table 3-1”, the “Dmax (%)” value is listed as “++ (60%-40%)” and the DC50 lay within 100 to 300 nM.

One may read the Dmax as the largest share of the target that was removed. Turning to `CC1(C)[C@H](Oc2ccc(C#N)c(Cl)c2)C(C)(C)[C@H]1N1Cc2nc(C#CC3CCC(N4CC5(CCN(c6ccc7c(c6)C(=O)N(C6CCC(=O)NC6=O)C7=O)C5)C4)CC3)ccc2C1=O` (stereo partly shown) [Compound 368, 2-Chloro-4-((1r,3r)-3-(2-((4-(6-(2-(2,6-dioxopiperidin-3-yl)-1,3-dioxoisoindolin-5-yl)-2,6-diazaspiro[3.4]octane-2-yl)cyclohexyl)ethynyl)-5-oxo-5,7-dihydro-pyrrolo[3,4-b]pyridin-6-yl)-2,2,4,4-tetramethylcyclobutoxy) benzonitrile], for the setting “Table 3-1”, the half-maximal degradation concentration (DC50) is 100 to 300 nM and the Dmax was 40 to 60%.

In the case of `CC1(C)[C@H](Oc2ccc(C#N)c(Cl)c2)C(C)(C)[C@H]1N1Cc2nc(C#CC3CCC(N4CC5(CCN(c6ccc7c(c6)C(=O)N(C6CCC(=O)NC6=O)C7=O)C5)C4)CC3)ccc2C1=O` (stereo partly shown) [Compound 369, 2-Chloro-4-((1r,3r)-3-(2-((4-(6-(2-(2,6-dioxopiperidin-3-yl)-1,3-dioxoisoindolin-5-yl)-2,6-diazaspiro[3.4]octane-2-yl)cyclohexyl)ethynyl)-5-oxo-5,7-dihydro-pyrrolo[3,4-b]pyridin-6-yl)-2,2,4,4-tetramethylcyclobutoxy) benzonitrile], for the setting “Table 3-1”, the “Dmax (%)” value is reported as “+++ (80%-60%)” and the half-maximal degradation concentration (DC50) was 10 to 100 nM.

For the compound `CC1(C)[C@H](Oc2ccc(C#N)c(Cl)c2)C(C)(C)[C@H]1N1Cc2nc(C#CC3CCC(N4CC5(CCN(c6cc7c(cc6F)C(=O)N(C6CCC(=O)NC6=O)C7=O)C5)C4)CC3)ccc2C1=O` (stereo partly shown) [Compound 370], where the note is “Table 3-1”, the “Dmax (%)” value was “++ (60%-40%)” and the DC50 was in the range of 100 to 300 nM.

For `CC1(C)[C@H](Oc2ccc(C#N)c(Cl)c2)C(C)(C)[C@H]1N1Cc2nc(C#CC3CCC(N4CC5(CCN(c6cc7c(cc6F)C(=O)N(C6CCC(=O)NC6=O)C7=O)C5)C4)CC3)ccc2C1=O` (stereo partly shown) [Compound 371], where the note is “Table 3-1”, the “Dmax (%)” value is listed as “++++ (>80%)” and the DC50 was in the range of 10 to 100 nM.

Consider `CC1(C)[C@H](Oc2ccc(C#N)c(Cl)c2)C(C)(C)[C@H]1N1Cc2nc(C#CC3CCC(N4CCC5(CN(c6ccc7c(c6)C(=O)N(C6CCC(=O)NC6=O)C7=O)C5)C4)CC3)ccc2C1=O` (stereo partly shown) [Compound 372], for which, where the note is “Table 3-1”, the DC50 is > 300 nM and the Dmax is < 40%.

Regarding `CC1(C)[C@H](Oc2ccc(C#N)c(Cl)c2)C(C)(C)[C@H]1N1Cc2nc(C#CC3CCC(N4CCC5(CN(c6ccc7c(c6)C(=O)N(C6CCC(=O)NC6=O)C7=O)C5)C4)CC3)ccc2C1=O` (stereo partly shown) [Compound 373], where the note is “Table 3-1”, the DC50 was > 300 nM.

As to `CC1(C)[C@H](Oc2ccc(C#N)c(Cl)c2)C(C)(C)[C@H]1N1Cc2nc(C#CC3CCC(N4CCC5(CN(c6cc7c(cc6F)C(=O)N(C6CCC(=O)NC6=O)C7=O)C5)C4)CC3)ccc2C1=O` (stereo partly shown) [Compound 374], for the setting “Table 3-1”, the DC50 was < 10 nM and the Dmax was > 80%.

Take `CC1(C)[C@H](Oc2ccc(C#N)c(Cl)c2)C(C)(C)[C@H]1N1Cc2nc(C#CC3CCC(N4CCC5(CN(c6cc7c(cc6F)C(=O)N(C6CCC(=O)NC6=O)C7=O)C5)C4)CC3)ccc2C1=O` (stereo partly shown) [Compound 375]: the DC50 (Table 3-1) was < 10 nM.

In the case of `CC1(C)[C@H](Oc2ccc(C#N)c(Cl)c2)C(C)(C)[C@H]1N1Cc2nc(C#CC3CCC(N4CC5(CCN(c6ccc7c(c6)C(=O)N(C6CCC(=O)NC6=O)C7=O)CC5)C4)CC3)ccc2C1=O` (stereo partly shown) [Compound 376, 2-Chloro-4-((1r,3r)-3-(2-((4-(7-(2-(2,6-dioxopiperidin-3-yl)-1,3-dioxoisoindolin-5-yl)-2,7-diazaspiro[3.5]nonan-2-yl)cyclohexyl)ethynyl)-S-oxo-5,7-dihydro-pyrrolo[3,4-b]pyridin-6-yl)-2,2,4,4-tetramethylcyclobutoxy) benzonitrile], under “Table 3-1”, the “Dmax (%)” value is on record as “++ (60%-40%)” and the DC50 is > 300 nM.

In the case of `CC1(C)[C@H](Oc2ccc(C#N)c(Cl)c2)C(C)(C)[C@H]1N1Cc2nc(C#CC3CCC(N4CC5(CCN(c6ccc7c(c6)C(=O)N(C6CCC(=O)NC6=O)C7=O)CC5)C4)CC3)ccc2C1=O` (stereo partly shown) [Compound 377, 2-Chloro-4-((1r,3r)-3-(2-((4-(7-(2-(2,6-dioxopiperidin-3-yl)-1,3-dioxoisoindolin-5-yl)-2,7-diazaspiro[3.5]nonan-2-yl)cyclohexyl)ethynyl)-5-oxo-5,7-dihydro-pyrrolo[3,4-b]pyridin-6-yl)-2,2,4,4-tetramethylcyclobutoxy) benzonitrile], where the note is “Table 3-1”, the “Dmax (%)” value is recorded as “++++ (>80%)” and the DC50 is < 10 nM.

On to `CC1(C)[C@H](Oc2ccc(C#N)c(Cl)c2)C(C)(C)[C@H]1N1Cc2nc(C#CC3CCC(N4CC5(CCN(c6cc7c(cc6F)C(=O)N(C6CCC(=O)NC6=O)C7=O)CC5)C4)CC3)ccc2C1=O` (stereo partly shown) [Compound 378, 2-Chloro-4-((1 r,3r)-3-(2-((4-(7-(2-(2,6-dioxopiperidin-3-yl)-6-fluoro-1,3-dioxoisoindolin-5-yl)-2,7-diazaspiro[3.5]nonan-2-yl)cyclohexyl)ethynyl)-5-oxo-5,7-dihydro-pyrrolo[3,4-b]pyridin-6-yl)-2,2,4,4-tetramethylcyclobutoxy) benzonitrile], for which, under “Table 3-1”, the “Dmax (%)” value is on record as “+ (<40%)” and the DC50 is > 300 nM.

On to `CC1(C)[C@H](Oc2ccc(C#N)c(Cl)c2)C(C)(C)[C@H]1N1Cc2nc(C#CC3CCC(N4CC5(CCN(c6cc7c(cc6F)C(=O)N(C6CCC(=O)NC6=O)C7=O)CC5)C4)CC3)ccc2C1=O` (stereo partly shown) [Compound 379, 2-Chloro-4-((1r,3r)-3-(2-((4-(7-(2-(2,6-dioxopiperidin-3-yl)-6-fluoro-1,3-dioxoisoindolin-5-yl)-2,7-diazaspiro[3.5]nonan-2-yl)cyclohexyl)ethynyl)-5-oxo-5,7-dihydro-pyrrolo[3,4-b]pyridin-6-yl)-2,2,4,4-tetramethylcyclobutoxy) benzonitrile], for which, under “Table 3-1”, the “Dmax (%)” value is recorded as “++++ (>80%)” and the DC50 is 10 to 100 nM.

As to `CC1(C)[C@H](Oc2ccc(C#N)c(Cl)c2)C(C)(C)[C@H]1N1Cc2nc(C#C[C@H]3CC[C@H](N4CCN(c5cc6c(cc5F)C(=O)N(C5CCC(=O)NC5=O)C6=O)CC4)CC3)cnc2C1=O` (stereo partly shown) [Compound 380], where the note is “Table 3-1”, the half-maximal degradation concentration (DC50) fell in the range of 10 to 100 nM and the Dmax was 60 to 80%.

Consider `CC1(C)[C@H](Oc2ccc(C#N)c(Cl)c2)C(C)(C)[C@H]1N1Cc2nc(C#C[C@H]3CC[C@H](N4CCN(c5ccc6c(c5)C(=O)N(C5CCC(=O)NC5=O)C6=O)CC4)CC3)cnc2C1=O` (stereo partly shown) [Compound 381], for which, where the note is “Table 3-1”, the DC50 was in the range of 10 to 100 nM and the Dmax was > 80%.

As to `CC1(C)[C@H](Oc2ccc(C#N)c(Cl)c2)C(C)(C)[C@H]1N1Cc2nc(N3CCC(CN4CCN(c5cc6c(cc5F)C(=O)N(C5CCC(=O)NC5=O)C6=O)CC4)CC3)ncc2C1=O` (stereo partly shown) [Compound 382], where the note is “Table 3-1”, the DC50 fell in the range of 10 to 100 nM and the Dmax is > 80%.

Regarding `CC1(C)[C@H](Oc2ccc(C#N)c(Cl)c2)C(C)(C)[C@H]1N1Cc2nc(N3CCC(CN4CCN(c5ccc6c(c5)C(=O)N(C5CCC(=O)NC5=O)C6=O)CC4)CC3)ncc2C1=O` (stereo partly shown) [Compound 383], under “Table 3-1”, the DC50 lay in the range of 10 to 100 nM and the Dmax is > 80%.

As to `CC1(C)[C@H](Oc2ccc(C#N)c(Cl)c2)C(C)(C)[C@H]1N1Cc2nc(N3CCC(CN4CCN(c5cc6c(cc5F)C(=O)N(C5CCC(=O)NC5=O)C6=O)CC4)CC3)cnc2C1=O` (stereo partly shown) [Compound 384], under “Table 3-1”, the DC50 is < 10 nM and the Dmax lay within 60 to 80%.

On to `CC1(C)[C@H](Oc2ccc(C#N)c(Cl)c2)C(C)(C)[C@H]1N1Cc2nc(N3CCC(CN4CCN(c5ccc6c(c5)C(=O)N(C5CCC(=O)NC5=O)C6=O)CC4)CC3)cnc2C1=O` (stereo partly shown) [Compound 385], for which, for the setting “Table 3-2”, the DC50 was 100 to 300 nM and the Dmax lay in the range of 60 to 80%.

For the compound `CC1(C)[C@H](Oc2ccc(C#N)c(Cl)c2)C(C)(C)[C@H]1N1Cc2nc(C#CC3CCC(N4CC5CC4CN5c4cc5c(cc4F)C(=O)N(C4CCC(=O)NC4=O)C5=O)CC3)cnc2C1=O` (stereo partly shown) [Compound 386], for the setting “Table 3-2”, the DC50 was > 300 nM and the Dmax was 40 to 60%.

In the case of `CC1(C)[C@H](Oc2ccc(C#N)c(Cl)c2)C(C)(C)[C@H]1N1Cc2nc(C#CC3CCC(N4CC5CC4CN5c4cc5c(cc4F)C(=O)N(C4CCC(=O)NC4=O)C5=O)CC3)cnc2C1=O` (stereo partly shown) [Compound 387], where the note is “Table 3-2”, the “Dmax (%)” value is “+ (<40%)” and the DC50 was > 300 nM.
